The test system of this experiment is BDF1 mice, P388 leukemia ip, median survival T/C. Kind of experiment: NCI In Vivo Anticancer Drug Screen. Data for tumor model P388 Leukemia (intraperitoneal) in B6D2F1 (BDF1) mice. The note with it: endpoint: median survival time, higher = longer survival. The method in brief:
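Compound-treated tumour-bearing mice were compared with vehicle-treated controls. Survival was recorded, and the value is the treated-group measurement divided by the control-group measurement (T/C).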

[1] abbreviates: dose: 100.0 mg/kg/injection, schedule: Q04DX003 (ip), vehicle: saline with Tween-80.
[2] abbreviates: dose: 200.0 mg/kg/injection, schedule: Q04DX003 (ip), vehicle: saline with Tween-80.
Where [3] appears, read: dose: 400.0 mg/kg/injection, schedule: Q04DX003 (ip), vehicle: saline with Tween-80.
Where [4] appears, read: dose: 50.0 mg/kg/injection, schedule: Q01DX009 (ip), vehicle: saline with Tween-80.
Where [5] appears, read: dose: 200.0 mg/kg/injection, schedule: Q01DX009 (ip), vehicle: saline with Tween-80.
The mark [6] stands for this setting: dose: 100.0 mg/kg/injection, schedule: Q01DX009 (ip), vehicle: saline with Tween-80.
Setting [7] is: dose: 0.25 mg/kg/injection, schedule: Q01DX010 (ip), vehicle: saline.
Where [8] appears, read: dose: 0.5 mg/kg/injection, schedule: Q01DX010 (ip), vehicle: saline.
The mark [9] stands for this setting: dose: 1.0 mg/kg/injection, schedule: Q01DX010 (ip), vehicle: saline.
Where [10] appears, read: dose: 50.0 mg/kg/injection, schedule: Q04DX003 (ip), vehicle: Klucel (hydroxypropylcellulose) (HPC).
Where [11] appears, read: dose: 100.0 mg/kg/injection, schedule: Q04DX003 (ip), vehicle: Klucel (hydroxypropylcellulose) (HPC).
[12] abbreviates: dose: 200.0 mg/kg/injection, schedule: Q04DX003 (ip), vehicle: Klucel (hydroxypropylcellulose) (HPC).

Structures are written as SMILES. Several values for one entry are separate records, joined by “and”; a condition that tells them apart may be missing. Identical values can stand only once. Toxic doses and inconclusive results are not listed.

`Cc1ccc(CNc2ccc(F)cc2)cc1`: the T/C reads like this: (dose: 100.0 mg/kg/injection, schedule: Q01DX009 (ip), vehicle: other) 100 % of control; under setting [1], 95 % of control; (dose: 178.0 mg/kg/injection, schedule: Q01DX009 (ip), vehicle: other) 100 % of control; (dose: 200.0 mg/kg/injection, schedule: Q01DX009 (ip), vehicle: other) 95 % of control; under setting [2], 104 % of control; (dose: 266.0 mg/kg/injection, schedule: Q01DX009 (ip), vehicle: other) 109 % of control. Moreover, the T/C reads like this: (dose: 400.0 mg/kg/injection, schedule: Q01DX009 (ip), vehicle: other) 104 % of control; under setting [3], 100 % of control.

`NNC12CC3CC(CC(C3)C1)C2`: the T/C (dose: 6.25 mg/kg/injection, schedule: Q01DX009 (ip), vehicle: saline) is 95 % of control; the T/C (dose: 6.25 mg/kg/injection, schedule: Q04DX003 (ip), vehicle: saline) is 102 % of control; the T/C (dose: 12.5 mg/kg/injection, schedule: Q01DX009 (ip), vehicle: saline) was 86 % of control; the T/C (dose: 12.5 mg/kg/injection, schedule: Q04DX003 (ip), vehicle: saline) was 100 % of control; the T/C (dose: 25.0 mg/kg/injection, schedule: Q01DX009 (ip), vehicle: saline) was 86 % of control; the T/C (dose: 25.0 mg/kg/injection, schedule: Q04DX003 (ip), vehicle: saline) was 98 % of control. For the setting “dose: 50.0 mg/kg/injection, schedule: Q04DX003 (ip), vehicle: saline”, the T/C was 115 % of control.

On to `NC(=O)SCC(=O)Nc1ccc2ncccc2c1`, for which the T/C is 122 % of control (dose: 88.0 mg/kg/injection, schedule: Q01DX009 (ip), vehicle: saline); 104 % of control (dose: 100.0 mg/kg/injection, schedule: Q04DX003 (ip), vehicle: saline sonified); 118 % of control (dose: 132.0 mg/kg/injection, schedule: Q01DX009 (ip), vehicle: saline); 100 % of control (dose: 200.0 mg/kg/injection, schedule: Q04DX003 (ip), vehicle: saline sonified); 100 % of control (dose: 400.0 mg/kg/injection, schedule: Q04DX003 (ip), vehicle: saline sonified).

In the case of `O=C(O)COc1ccc(Cl)cc1Cl`, the T/C runs as follows: under setting [4], 118 % of control; under setting [5], 90 % of control.

In the case of `C=C1CC(OC(=O)c2ccc([N+](=O)[O-])cc2)C1`, the T/C was 111 % of control under setting [4], 111 % of control under setting [6] and 90 % of control under setting [5].

Regarding `CSCCC(NC(=O)NC(CCSC)C(=O)Oc1ccc([N+](=O)[O-])cc1)C(=O)Oc1ccc([N+](=O)[O-])cc1` (stereo not given), the T/C was 87 % of control under setting [4], 96 % of control under setting [6] and 112 % of control under setting [5].

Consider `CN(C)c1ccc(S(=O)(=O)c2ccc3nc(N)nc(N)c3c2)cc1`, for which the T/C by setting is: under setting [4], 97 % of control; under setting [6], 91 % of control; under setting [5], 88 % of control.

Take `NC(=O)N(CCCl)N=O`: the T/C by setting is: under setting [7], 190 % of control; under setting [8], 209 % of control and 213 % of control; under setting [9], 290 % of control and 300 % of control; (dose: 1.25 mg/kg/injection, schedule: Q01DX010 (ip), vehicle: saline) 272 % of control and 168 % of control; (dose: 2.0 mg/kg/injection, schedule: Q01DX010 (ip), vehicle: saline) 277 % of control; (dose: 2.5 mg/kg/injection, schedule: Q01DX010 (ip), vehicle: saline) 118 % of control and 209 % of control. Under “dose: 4.0 mg/kg/injection, schedule: Q01DX010 (ip), vehicle: saline”, the T/C is 90 % of control.

As for `O=C(c1ccccc1)c1cc(-c2ccccc2)n(C2CCCCC2)c1`, the T/C is 96 % of control (dose: 25.0 mg/kg/injection, schedule: Q01DX009 (ip), vehicle: saline with Tween-80); 86 % of control under setting [4]; 94 % of control under setting [6]; 96 % of control under setting [5].

Regarding `CC(C)CC(=O)C1=C(O)C(Nc2ccccc2)=CC(=O)C1=Nc1ccccc1`, the T/C reads like this: under setting [1], 106 % of control; under setting [2], 118 % of control; under setting [3], 111 % of control.

Consider `COc1ccc(CCN2CSC(=S)N(CCc3ccc(OC)c(OC)c3)C2)cc1OC`, for which the T/C (dose: 100.0 mg/kg/injection, schedule: Q01DX009 (ip), vehicle: Klucel (hydroxypropylcellulose) (HPC)) was 100 % of control; the T/C (dose: 200.0 mg/kg/injection, schedule: Q01DX009 (ip), vehicle: Klucel (hydroxypropylcellulose) (HPC)) is 110 % of control; the T/C (dose: 400.0 mg/kg/injection, schedule: Q01DX009 (ip), vehicle: Klucel (hydroxypropylcellulose) (HPC)) is 94 % of control.

Take `COc1cccc(/C(C)=N\Nc2ccc([N+](=O)[O-])cc2[N+](=O)[O-])c1OC`: the T/C runs as follows: under setting [4], 94 % of control; (dose: 50.0 mg/kg/injection, schedule: Q04DX003 (ip), vehicle: saline with Tween-80) 100 % of control; under setting [6], 100 % of control; under setting [1], 102 % of control; under setting [5], 91 % of control; under setting [2], 102 % of control. The T/C is 94 % of control (dose: 400.0 mg/kg/injection, schedule: Q01DX009 (ip), vehicle: saline with Tween-80) and 97 % of control under setting [3].

Turning to `COc1cc2c3c(c1)C(=O)CCN3CCC2`, the T/C by setting is: under setting [10], 95 % of control; under setting [11], 95 % of control; under setting [12], 87 % of control.

Regarding `C[C@]12CC[C@H](OC3OC(CO)C(O)C(O)C3O)C[C@H]1CC[C@@H]1[C@@H]2CC[C@]2(C)[C@@H](C3=CCOC3=O)CC[C@]12O` (stereo not given in full), the T/C is 110 % of control (dose: 0.1 mg/kg/injection, schedule: Q01DX010 (ip), vehicle: saline); 105 % of control (dose: 0.2 mg/kg/injection, schedule: Q01DX010 (ip), vehicle: saline); 100 % of control under setting [7]; 105 % of control (dose: 0.4 mg/kg/injection, schedule: Q01DX010 (ip), vehicle: saline); 100 % of control under setting [8]; 100 % of control (dose: 0.8 mg/kg/injection, schedule: Q01DX010 (ip), vehicle: saline). The T/C under setting [9] was 100 % of control.

In the case of `C=CCNC(=S)Nc1cc(Cl)ccc1C`, the T/C was 95 % of control under setting [10], 100 % of control under setting [11] and 109 % of control under setting [12].

Take `[NH-]C(CO)C(=O)O.[NH-]C(CO)C(=O)O.[Pt+2]` (stereo not given): the T/C reads like this: (dose: 12.5 mg/kg/injection, schedule: Q01DX009 (ip), vehicle: distilled water + Tween-80) 115 % of control; (dose: 25.0 mg/kg/injection, schedule: Q01DX009 (ip), vehicle: distilled water + Tween-80) 117 % of control; (dose: 50.0 mg/kg/injection, schedule: Q01DX009 (ip), vehicle: distilled water + Tween-80) 115 % of control; (dose: 100.0 mg/kg/injection, schedule: Q01DX009 (ip), vehicle: distilled water + Tween-80) 115 % of control.

In the case of `Nc1ccc2c(-c3ccc([N+](=O)[O-])cc3)cc(=O)[nH]c2n1`, the T/C is 100 % of control (dose: 200.0 mg/kg/injection, schedule: Q04DX003 (ip), vehicle: saline) and 97 % of control (dose: 400.0 mg/kg/injection, schedule: Q04DX003 (ip), vehicle: saline).

`CCC1CC2CCC(c3cc4c(cc3OC)N(C)C3C(O)(C(=O)OC)C(OC(C)=O)C5(CC)C=CCN6CCC43C65)c3[nH]c4ccccc4c3CCN(C1)C2` (stereo not given): the T/C (dose: 0.03 mg/kg/injection, schedule: Q01DX010 (ip), vehicle: saline) was 90 % of control; the T/C (dose: 0.06 mg/kg/injection, schedule: Q01DX010 (ip), vehicle: saline) was 100 % of control; the T/C (dose: 0.13 mg/kg/injection, schedule: Q01DX010 (ip), vehicle: saline) was 90 % of control; the T/C under setting [7] is 100 % of control; the T/C under setting [8] was 95 % of control.

Values taken from PubChem BioAssay AID328 (DTP/NCI, 2004).
